Reference: patent US6407097B1, “Methoximinomethyloxathiazines” (Bayer Aktiengesellschaft, priority 1998, dated 2002)

Columns and labels:
[1] = logP by HPLC (EEC directive 79/831 Annex V. A8, gradient method); format: physicochemical; details: starting materials/intermediates, read-out: HPLC: log P
[2] = system: Sphaerotheca fuliginea; experiment: Sphaerotheca test (cucumber)/protective; format: in vivo; details: protective, application rate 100 g/ha, evaluation 10 days after inoculation
Procedure: Sphaerotheca test (cucumber)/protective Solvent: 47 parts by weight of acetone Emulsifier: 3 parts by weight of alkylaryl polyglycol ether To produce a suitable preparation of active compound, 1 part by weight of active compound is mixed with the stated amounts of solvent and emulsifier, and the concentrate is diluted with water to the desired concentration. To test for protective activity, young plants are sprayed with the preparation of active compound at the stated application rate. After the spray coating has dried on, the plants are inoculated with an aqueous spore suspension of Sphaerotheca fuliginea. The plants are then placed in a greenhouse at approximately 23° C. and a relative atmospheric humidity of approximately 70%. Evaluation is carried out 10 days after the inoculation. 0% means an efficacy which corresponds to that of the control, whereas an efficacy of 100% means that no infection is observed.

Row | Compound | chromatographic logP [1] | efficacy [2] [%]
1 | CON=C(C1=NOCCS1)c1ccccc1Oc1ncnc(Oc2ccccc2)c1F [Example 1, (5,6-dihydro-[1,4,2]-oxathiazin-3-yl)-2-[(5-fluoro-6-phenoxy-pyrimidine-4-yloxy)-phenyl]-methanone O-methyloxime] |  | ≥ 90
2 | CON=C(C1=NOCCS1)c1ccccc1O [II-1, (5,6-dihydro-[1,4,2]oxathiazin-3-yl)-(2-hydroxyphenyl)-methanone O-methyloxime] | 1.75 | 
3 | CON=C(C1=NOCCS1)c1ccccc1Oc1ncnc(F)c1F [IV-1, [2-(5,6-difluoro-pyrimidine-4-yloxy)-phenyl]-(5,6-dihydro-[1,4,2]oxathiazin-3-yl)-methanone O-methyloxime] | 2.8 | 

Continued, in another order:

Row | chromatographic logP [1] | Compound | efficacy [2] [%]
4 | 3.01 | CON=C1C(=NOCCSC(C)=O)Oc2ccccc21 (single isomer, unassigned) [VI-1 Isomer A, S-[2-(3-methoxyimino-3H-benzofuran-2-ylideneaminooxy)-ethyl]thioacetate] | 
5 | 3.18 | CON=C1C(=NOCCSC(C)=O)Oc2ccccc21 (single isomer, unassigned) [VI-1 Isomer B, S-[2-(3-methoxyimino-3H-benzofuran-2-ylideneaminooxy)-ethyl]thioacetate] | 
6 | 3.08 | CON=C1C(=NOCCBr)Oc2ccccc21 (single isomer, unassigned) [VII-1 Isomer A, benzofuran-2,3-dione 2-[O-(2-bromoethyl)-oxime] 3-(O-methyloxime)] | 
7 | 3.23 | CON=C1C(=NOCCBr)Oc2ccccc21 (single isomer, unassigned) [VII-1 Isomer B, benzofuran-2,3-dione 2-[O-(2-bromoethyl)-oxime] 3-(O-methyloxime)] | 
